Assay results from patent US4735947A, “Methyllevallorphanium salts having peripheral opiate antagonistic activity” (Sanofi, priority 1983, dated 1988).
Counter-ions that a name gives are not always drawn.

What was measured:
[1] = system: analgesic and constipating effects of morphine; experiment: index of peripheral activity (hot-plate analgesia test versus charcoal meal constipation test); format: in vivo, mice; conditions: for ID50a/ID50c: index of the peripheral activity; for peripheral selectivity (analgesic versus constipating effect), in words: conditions of Table I
Experimental: (§1) The antagonism to the peripheral action of opiates is assessed on the basis of the percent inhibition of the analgesic and of the constipating effects of morphine. The ratio between the dose which inhibits by 50% the analgesic effect of morphine and the dose which inhibits by 50% its constipating effect represents the index of the peripheral activity.
(§2) The antagonism to the analgesic effect of morphine was assessed by the hot-plate analgesia test according to P. A. Janssen et al. (J. Pharm. Pharmacol. 1957, 9, 381-400) by using fasting (18 hours) female mice of 20-22 g. Morphine was injected subcutaneously (24 mg/kg) thirty minutes before the beginning of the test. The antagonist was injected subcutaneously 5 minutes before the morphine. The antagonistic activity was expressed as ID50 of the morphine antinociceptive effect, calculated on the basis of the log dose reaction time regression of the animals treated with different doses of the products under testing.
(§3) The antagonism to the morphine constipating effect of the methyl levallorphanium salts of the present invention was assessed according to the test described by A. F. Green (Br. J. Pharm. Chemother. 1959, 14, 26-34), slightly modified.
(§4) Three groups of fasting (20 hours) female mice of about 20 g were used. To a control group, a meal consisting of 0.2 ml of a mixture of 5% arabic gum (6 ml), flour (2 g) and charcoal (1 g) was administered by oral route. The second group was treated with 12 mg/kg of morphine s.c. and, immediately afterwards, with the above charcoal meal. […] After 30 minutes, the animals were sacrificed to assess the portion of intestine through which the charcoal had passed, expressed as percent of the total length of the small intestine.
(§5) The doses which inhibit by 50% the analgesic effect (ID50a) and the constipating effect (ID50c) have been extrapolated from least square log dose-response line by applying the analysis of the variance by linear regression.

[2] = system: constipating effect of morphine; experiment: antagonism to the morphine constipating effect, charcoal meal test (A. F. Green, slightly modified); format: in vivo, mice; conditions: for ED50: Mus musculus, sc, read-out: Antagonism to the constipating effect ID50c; for ED50 / Antagonism to the constipating effect ID50c: charcoal meal, female mice, antagonist s.c. 5 min before morphine 12 mg/kg s.c.
Experimental: as §1, §3, §4, §5

[3] = system: analgesic effect of morphine; experiment: antagonism to the analgesic effect of morphine, hot-plate analgesia test (P. A. Janssen et al.); format: in vivo, mice; conditions: for ED50 / Antagonism to the analgesic effect ID50a: female mice, antagonist s.c. 5 min before morphine 24 mg/kg s.c.; for ED50: read-out: Antagonism to the analgesic effect ID50a
Experimental: as §1, §2, §5

opiate = conditions: reported in earlier literature or filings; cited from earlier work

C=CC[N+]1(C)CC[C@]23CCCC[C@H]2[C@H]1Cc1ccc(O)cc13 (single isomer, unassigned) [methyllevallorphanium methylsulfate]
ID50a/ID50c [1]: ~ 12 | ED50 [2]: 4.9 mg/kg | inhibition at 30 mg/kg ([3]; Mus musculus, sc, at 30 mg/kg s.c., mice, read-out: inhib. of the analgesic effect of morphine): 41% | inhibition at 60 mg/kg ([3]; Mus musculus, sc, at 60 mg/kg s.c., mice, read-out: inhib. of the analgesic effect of morphine): 49% | ED50 ([3]; Mus musculus, sc): ~60 mg/kg

C=CC[N+]1(C)CC[C@]23c4c5ccc(O)c4O[C@H]2C(=O)CC[C@@]3(O)[C@H]1C5.COS(=O)(=O)[O-] (stereo partly drawn) [naloxone sulfomethylate]
ID50a/ID50c [1]: 0.27 | Antagonism to the constipating effect ID50c [2]: 5.8 mg/kg | Antagonism to the analgesic effect ID50a [3]: 1.6 mg/kg

C=CC[N+]1(C)CC[C@]23CCCC[C@H]2[C@H]1Cc1ccc(O)cc13 (single isomer, unassigned) [methyllevallorphanium mesilate]
ID50a/ID50c [1]: > 8 | Antagonism to the constipating effect ID50c [2]: 7.4 mg/kg | Antagonism to the analgesic effect ID50a [3]: > 60 mg/kg

C=CCN1CC[C@]23CCCC[C@H]2[C@H]1Cc1ccc(O)cc13 [levallorphan tartrate]
peripheral selectivity (analgesic versus constipating effect), in words [1]: more active as antagonists of the analgesic effect than as antagonists of the constipating effect | ID50a/ID50c [1]: 0.01 | ED50 [2]: 5.5 mg/kg | ED50 ([3]; Mus musculus, sc): 0.03 mg/kg

C=CC[N+]1(CC=C)CC[C@]23CCCC[C@H]2[C@H]1Cc1ccc(O)cc13 [levallorphan bromoallylate]
peripheral selectivity (analgesic versus constipating effect), in words [1]: the ratio between its ID50a and ID50c is by far lower than that of the compounds of the present invention | ID50a/ID50c [1]: 0.97 | ED50 [2]: 15.7 mg/kg | peripheral opiate antagonism, in words ([2]; conditions of Table I): good opiate peripheral antagonist | peripheral antagonistic activity / opiate antagonistic activity (opiate): peripheral narcotic antagonist

C=CCN1CC[C@]23c4c5ccc(O)c4O[C@H]2C(=O)CC[C@@]3(O)[C@H]1C5 [naloxone, N-allylnoroxymorphone]
peripheral selectivity (analgesic versus constipating effect), in words [1]: more active as antagonists of the analgesic effect than as antagonists of the constipating effect | ID50a/ID50c [1]: 0.08 | ED50 [2]: 0.75 mg/kg | ED50 ([3]; Mus musculus, sc): 0.06 mg/kg
